Source: paper PMC3074303 (Biochemistry, 2010)

Molecular target: arrestin-1 (visual arrestin) (Bos taurus, UniProt P08168, F197A/F85A)
Test: 2D 1H-15N TROSY NMR chemical shift titration fitted to a […] model
Type: binding

arrestin-1 (visual arrestin), sequence (P08168 whole entry F85A/F197A): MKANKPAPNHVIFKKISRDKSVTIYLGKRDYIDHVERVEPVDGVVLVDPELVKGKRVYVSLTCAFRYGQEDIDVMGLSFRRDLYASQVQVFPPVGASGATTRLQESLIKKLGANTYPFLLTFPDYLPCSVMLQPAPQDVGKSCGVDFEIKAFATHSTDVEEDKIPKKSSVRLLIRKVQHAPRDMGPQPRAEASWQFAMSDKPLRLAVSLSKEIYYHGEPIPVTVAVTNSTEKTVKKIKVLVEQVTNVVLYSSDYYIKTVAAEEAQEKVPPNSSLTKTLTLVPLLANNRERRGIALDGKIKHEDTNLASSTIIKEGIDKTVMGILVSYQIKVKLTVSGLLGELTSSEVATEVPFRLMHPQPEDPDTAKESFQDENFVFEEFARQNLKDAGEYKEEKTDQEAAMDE

Kd: 160 ± 60 µM
SMILES: O=P(O)(O)O[C@H]1[C@H](OP(=O)(O)O)[C@@H](OP(=O)(O)O)[C@H](OP(=O)(O)O)[C@@H](OP(=O)(O)O)[C@H]1OP(=O)(O)O [IP6]
